Laboratory results taken from US20260183396A1, “CXCR3 OVEREXPRESSION IN CAR-NK CELLS PRIMES MIGRATION/HOMING INTO THE TUMOR MICROENVIRONMENT” (DANA-FARBER CANCER INSTITUTE, INC., priority 2022, published 2026).

Key:
[1] = system: MPM PDOTS; assay: PDOTS live/dead quantification ex vivo; assay type: cell-based
Method: Patient-derived organotypic tumor spheroids (PDOTS). […] Briefly, fresh tumor specimens were minced in a 15 mL falcon tube in prewarmed to 37° C. full media (DMEM from Thermo Fisher Scientific+10% FBS)+100 U/mL collagenase type IV (Life Technologies) and 50 μg/mL dNase I (Roche) for approximately 20 minutes using sterile scissors and pipetting. Dissociated material was strained over 100-μm filter and 40-μm filters to generate S1 (>100 μm), S2 (40-100 μm), and S3 (<40 μm) spheroid fractions, which were subsequently maintained in ultralow-attachment (ULA) tissue culture plates (Corning). […] S2 fractions were used for ex vivo culture by resuspending them in type I rat tail collagen (Corning) at a concentration of 2.8 mg/mL prior to loading into the center gel region of the 3-D microfluidic culture device (AIM Biotech) and incubation for 40 minutes at 37° C. in humidity chambers to allow for polymerization. […]
PDOTS immunofluorescence and live/dead quantification. […] Following incubation with the dyes (20 minutes at room temperature in the dark for AO/PI or 45 minutes for Hoechst 33342/PI), images were captured using 4× objective of a Nikon Eclipse 80i fluorescence microscope equipped with automated motorized stage (Proscan), Z-stack (Prior), and Zyla 5.5 sCMOS camera (Andor). […] Live and dead cell quantitation was performed by measuring total cell area of each dye.

[2] = system: MPM cell lines; assay: CellTiter-Glo viability in MPM cell lines; assay type: cell-based, human; settings: cultured in vitro
Method: CellTiter-Glo luminescent cell viability assay. Cell viability was assessed using the CellTiter-Glo Luminescent Cell Viability assay (Promega, G7571) according to manufacturer's instructions. […] All conditions were tested in triplicate and plates were read on a Tecan Infinite Mplex Microplate Reader.

[3] = system: MPM explants; assay: Dynamic single-cell RNA sequencing of MPM explants; assay type: cell-based, human
Method: Dynamic single-cell RNA sequencing and data analysis. The previous protocol (Sehgal et al., J. Clin. Invest. 131:e135038 (2021)) was adapted to test S1 explants from MPM PDOTS. […] After 24 hours of treatment in a ULA dish, tumor spheroids were digested with trypsin in a 37° C. incubator for 5 minutes to obtain single-cell suspensions. Cells were loaded onto a 10× chromium instrument (10× Genomics) per manufacturer's instructions. ScRNA libraries were generated using the single cell 3′ reagent kit (10× Genomics) per the user guide. Quality control of the completed libraries was performed using a bioanalyzer high sensitivity DNA kit (Agilent) and then sequenced using the Illumina NextSeq 500 platform.
Raw sequencing reads were processed using the 10× Genomics CellRanger bioinformatics pipeline v6.0.1. The assembled matrix was then fed into the standard workflow of the R package, Seurat v4.0.4. Genes that were expressed in at least 3 cells, and only cells that expressed at least […], were kept for downstream processing. Additionally, cells expressing more than 7000 genes and cells with more than 10% of UMIs mapping to mitochondrial genes were removed from the analysis. All the samples were prepared and sequenced together on the same platform. The filtered matrix was log-normalized using global scaling in Seurat. UMI and mitochondrial transcript content were used as regression parameters. The normalized matrix was scaled and centered gene-wise, and then underwent dimensionality reduction using principal component analysis (PCA) on the highly varying genes. After visual inspection of the PCA elbow plot, the top 10 PCs were chosen for further analysis. Clustering was performed on the chosen PCs using the shared nearest neighbor algorithm in Seurat with default parameters.
A Uniform Manifold Approximation and Projection (UMAP) map was computed and plotted with the DimPlot module of Seurat. Cluster differential expression analysis was performed in Seurat using the FindMarkers command using the Wilcoxon rank sum test without thresholds. Contour plots overlayed onto UMAPs were generated with R package ggplot2 (Wickham, Springer-Verlag New York (2016)).
Cell types were identified based on comparative analysis of the signatures published previously (Han et al., Cell 172:1091-1107 (2018); Muhl et al., Nat. Commun. 11:3953 (2020); Correia et al., Proc. Natl. Acad. Sci. U.S.A. 115:E5980-E5989 (2018); Gueugnon et al., Am. J. Pathol. 178:1033-42 (2011)), as well as marker genes identified in this study, which were used to remove genes ubiquitously expressed across cell subpopulations. Collagen-encoding genes were added to the fibroblast signature.

## Nc1ncnc2c1ncn2[C@@H]1O[C@@H]2COP(=O)([S-])O[C@@H]3[C@H](O)[C@@H](COP([O-])(=S)O[C@H]2[C@H]1O)O[C@H]3n1cnc2c(N)ncnc21.[Na+].[Na+] (stereo partly drawn) [ADU-S100]
[1]; 35 MPM patient specimens ex vivo
  specimens approximating clinical criteria for response with >30% decrease in cell area, p<0.05: 7 specimens
[1]; combined treatment with primary NK cells, cells from 2 out of 3 donors
  primary NK cell response in MPM PDOTS: significantly enhanced
[2]
  cytotoxicity in MPM cell lines: did not cause cytotoxicity
[3]; 10 μM ADU-S100
  BST2 avg log2FC: 2.86
  C15orf48 avg log2FC: 3.02
  CCL5 avg log2FC: 2.10
  CMPK2 avg log2FC: 2.19
  CXCL1 avg log2FC: 2.20
  CXCL10 avg log2FC: 3.10
  CXCL11 avg log2FC: 2.45
  HES4 avg log2FC: 2.07
  HLA-B avg log2FC: 2.09
  HLA-C avg log2FC: 2.08
  IFI6 avg log2FC: 4.76
  IFI27 avg log2FC: 4.89
  IFI30 avg log2FC: 2.24
  IFI35 avg log2FC: 2.69
  IFIT1 avg log2FC: 3.89
  IFIT2 avg log2FC: 3.99
  IFIT3 avg log2FC: 4.01
  IFITM1 avg log2FC: 3.42
  IL1B avg log2FC: 2.23
  IL1RN avg log2FC: 2.21
  IL32 avg log2FC: 3.43
  IRF7 avg log2FC: 2.44
  ISG15 avg log2FC: 5.19
  ISG20 avg log2FC: 3.89
  LAP3 avg log2FC: 2.78
  LY6E avg log2FC: 3.24
  MDK avg log2FC: 2.01
  MX1 avg log2FC: 2.84
  OAS1 avg log2FC: 3.40
  OAS3 avg log2FC: 2.02
  OASL avg log2FC: 3.01
  PLAAT4 avg log2FC: 2.38
  PLSCR1 avg log2FC: 2.64
  RSAD2 avg log2FC: 4.43
  SAA1 avg log2FC: 2.46
  STAT1 avg log2FC: 2.09
  TFPI2 avg log2FC: 2.88
  TNFSF13B avg log2FC: 2.03
  WARS avg log2FC: 3.24
  WFDC2 avg log2FC: 2.06
[3]; 24 hours
  IL-33 expression in CAFs: potent and unique STING agonist induction
[3]; 24 hours, primarily MSLN positive tumor cells (cluster 1) and CAFs (clusters 4, 5)
  CXCR3 ligand expression (CXCL9, CXCL10, CXCL11): strongly induced
[3]; MPM cluster 1 relative to clusters 0, 3
  TGFB1 expression: downregulated
[3]; NK cell activating ligand
  NECTIN2 (CD112) expression in tumor cells: increased
[3]; NK cell inhibitory ligands
  HLA-A/B/C expression in tumor cells: dose-dependent increases
[3]; STING agonist treatment
  ANGPTL4 avg log2FC: −1.48
  CCDC80 avg log2FC: −1.57
  CEMIP avg log2FC: −1.20
  ID1 avg log2FC: −1.07
  IGFBP4 avg log2FC: −1.42
  KRT19 avg log2FC: −1.81
  LDHA avg log2FC: −1.16
  NDRG1 avg log2FC: −1.07
  PABPC1 avg log2FC: −1.11
  PGK1 avg log2FC: −1.04
  RPL41 avg log2FC: −1.09
  RPS29 avg log2FC: −1.10
  RPSA avg log2FC: −1.10
  SERPINB3 avg log2FC: −2.15
  SERPINB4 avg log2FC: −1.25
  SERPINB7 avg log2FC: −1.73
  TGFBI avg log2FC: −2.38
  TPI1 avg log2FC: −1.11
  TUBA1A avg log2FC: −1.02
[3]; high-dose treatment
  abundance of CD8 positive cell populations, including Tregs: depletion
[3]; predominantly inhibitory ligand
  PVR (CD155) expression in tumor cells: decreased expression
